The source of these data is patent US8158621B2, “Methods of treating or preventing autoimmune diseases with 2,4-pyrimidinediamine compounds” (Rigel Pharmaceuticals, Inc., priority 2002, dated 2012).

For the first series, the system named is cultured human mast cells (CHMC). Nature of the series: CHMC low cell density IgE activation: tryptase assay. In kind it is cell-based. The conditions noted are these: Low Density; read-out: CHMC anti-IgE Tryptase. The gist of the method:
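Cells pelleted, taken up in warm MT, plated at 1000-1500/well, held 1 hr 37° C. Anti-IgE added, 30 min 37° C. Plates spun; supernatant mixed with tryptase substrate, 30 min RT.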
Turning to `CNC(=O)C1Cc2cc(Nc3ncc(F)c(Nc4ccc(OC(C)C)cc4)n3)ccc2O1` (stereo not shown) [Compound R926956], the IC50 turned out to be 211 nM.

The series is the same for the next values; noted with them: low cell density; read-out: CHMC anti-IgE Tryptase.
On to `Cc1cc(Nc2ncc(F)c(Nc3ccc4c(c3)NC(=O)C(C)(C)O4)n2)cc(Cl)c1O` [Compound R940358], for which the IC50 worked out at 30 nM.
For the compound `Cc1ccc(S(=O)(=O)O)cc1.Cc1ccc(S(=O)(=O)O)cc1.OCCCn1ncc2cc(Nc3ncc(F)c(Nc4ccc(Cl)c(Cl)c4)n3)ccc21` [Compound R935451], the IC50 was above 10000 nM.
Take `COc1cc(Nc2ncc(F)c(Nc3ccc4c(c3)NC(=O)C(C)(C)O4)n2)cc(OC)c1.Cc1ccc(S(=O)(=O)O)cc1` [Compound R927070]: the IC50 was found to be 54 nM.
In the case of `CC1(C)Oc2ccc(Nc3nc(Nc4ccc5cn[nH]c5c4)ncc3F)cc2NC1=O.O=S(=O)(O)c1ccccc1` [Compound R935429], the IC50 was 36 nM.
On to `COc1ccc(Nc2nc(Nc3ccc4cc[nH]c4c3)ncc2F)cc1Cl.Cc1ccc(S(=O)(=O)O)cc1` [Compound R927087], for which the IC50 worked out at 436 nM.

The next series shares this test system. Nature of the series: CHMC low cell density ionomycin activation: tryptase assay. As to conditions: Low Density; read-out: CHMC Ionomycin Tryptase. In kind it is cell-based.
Take `CNC(=O)C1Cc2cc(Nc3ncc(F)c(Nc4ccc(OC(C)C)cc4)n3)ccc2O1` (stereo not shown) [Compound R926956]: the IC50 was above 10000 nM.

The same series, now with this note: low cell density; read-out: CHMC Ionomycin Tryptase.
In the case of `Cc1cc(Nc2ncc(F)c(Nc3ccc4c(c3)NC(=O)C(C)(C)O4)n2)cc(Cl)c1O` [Compound R940358], the IC50 came out at 4300 nM.
`Cc1ccc(S(=O)(=O)O)cc1.Cc1ccc(S(=O)(=O)O)cc1.OCCCn1ncc2cc(Nc3ncc(F)c(Nc4ccc(Cl)c(Cl)c4)n3)ccc21` [Compound R935451]: the IC50 was above 10000 nM.
As to `COc1cc(Nc2ncc(F)c(Nc3ccc4c(c3)NC(=O)C(C)(C)O4)n2)cc(OC)c1.Cc1ccc(S(=O)(=O)O)cc1` [Compound R927070], the IC50 is 5240 nM.
Take `CC1(C)Oc2ccc(Nc3nc(Nc4ccc5cn[nH]c5c4)ncc3F)cc2NC1=O.O=S(=O)(O)c1ccccc1` [Compound R935429]: the IC50 was above 10000 nM.
With `COc1ccc(Nc2nc(Nc3ccc4cc[nH]c4c3)ncc2F)cc1Cl.Cc1ccc(S(=O)(=O)O)cc1` [Compound R927087], the IC50 was above 10000 nM.

The target of a further series is T1, Syk kinase (Homo sapiens, UniProt P43405).
T1 construct: purchased Upstate, Lake Placid NY
Nature of the series: Syk kinase biochemical fluorescence polarization assay. The conditions noted are these: isolated Syk kinase, fluorescence polarization, 4 uM ATP. Background: Polarisation of emitted light reports the rotation of a fluorescent probe.
Consider `Cc1cc(Nc2ncc(F)c(Nc3ccc4c(c3)NC(=O)C(C)(C)O4)n2)cc(Cl)c1O` [Compound R940358], for which the IC50 is 23 nM.
For `CNC(=O)C1Cc2cc(Nc3ncc(F)c(Nc4ccc(OC(C)C)cc4)n3)ccc2O1` (stereo not shown) [Compound R926956], the IC50 was found to be 380 nM.

Test system in another series: not listed separately
Briefly: Mouse Reverse Passive Arthus reaction (RPA reaction). In kind it is in vivo, C57BL/6 mice. As to conditions: oral, 10 mg/kg, pretreatment time 1.5 hrs. As for the experimental part: In this model system, test compounds are administered at several timepoints prior to administration of Abs and Ags. A solution of rabbit anti-OVA IgG (50 μg in 25 μl/mouse) is injected intradermally, and immediately following is an intravenous injection of chicken egg albumin (20 mg/kg of body weight) in a solution containing 1% Evans blue dye. The degree of edema and hemorrhage is measured in the dorsal skin of C57BL/6 mice using the Evan's Blue dye as an indicator of local tissue damage. Purified polyclonal rabbit IgG is used as a control.
Pretreatment time, in which the test compounds are administered prior to Ab/Ag challenge, depends on the pharmacokinetic (PK) properties of each individual compound. Four hours after induction of Arthus reaction, mice are euthanized, and tissues are harvested for assessment of edema.
Turning to `Cc1ccc(S(=O)(=O)O)cc1.Cc1ccc(S(=O)(=O)O)cc1.OCCCn1ncc2cc(Nc3ncc(F)c(Nc4ccc(Cl)c(Cl)c4)n3)ccc21` [Compound R935451], the “% inhibition to vehicle control Edema Size ± SEM” value is reported as −14.4 ± 13.3%.

The series is the same for the next values; noted with them: oral, 10 mg/kg, pretreatment time 1.5 hrs + 4 hours.
With `Cc1ccc(S(=O)(=O)O)cc1.Cc1ccc(S(=O)(=O)O)cc1.OCCCn1ncc2cc(Nc3ncc(F)c(Nc4ccc(Cl)c(Cl)c4)n3)ccc21` [Compound R935451], the “Plasma Concentration ± SEM (ng/ml) Exposure = Pretreatment Time + 4 hours” value (“Plasma Concentration ± SEM” for short) stood at 14.4 ± 1.8 ng/mL.

Staying with this series, now noted: oral, 30 mg/kg, pretreatment time 1.5 hrs.
For `Cc1ccc(S(=O)(=O)O)cc1.Cc1ccc(S(=O)(=O)O)cc1.OCCCn1ncc2cc(Nc3ncc(F)c(Nc4ccc(Cl)c(Cl)c4)n3)ccc21` [Compound R935451], the “% inhibition to vehicle control Edema Size ± SEM” value was −30.6 ± 15.4%.

Still in this series, the particulars now being: oral, 30 mg/kg, pretreatment time 1.5 hrs + 4 hours.
On to `Cc1ccc(S(=O)(=O)O)cc1.Cc1ccc(S(=O)(=O)O)cc1.OCCCn1ncc2cc(Nc3ncc(F)c(Nc4ccc(Cl)c(Cl)c4)n3)ccc21` [Compound R935451], for which the “Plasma Concentration ± SEM” value was found to be 78.0 ± 32.0 ng/mL.

Still in this series, the particulars now being: oral, 50 mg/kg, pretreatment time 1 hrs.
With `COc1cc(Nc2ncc(F)c(Nc3ccc4c(c3)NC(=O)C(C)(C)O4)n2)cc(OC)c1.Cc1ccc(S(=O)(=O)O)cc1` [Compound R927070], the “% inhibition to vehicle control Edema Size ± SEM” value is 56 ± 15%.

Staying with this series, now noted: oral, 50 mg/kg, pretreatment time 1 hrs + 4 hours.
With `COc1cc(Nc2ncc(F)c(Nc3ccc4c(c3)NC(=O)C(C)(C)O4)n2)cc(OC)c1.Cc1ccc(S(=O)(=O)O)cc1` [Compound R927070], the “Plasma Concentration ± SEM” value is 1755 ± 310 ng/mL.

Still in this series, the particulars now being: oral, 50 mg/kg, pretreatment time 1.5 hrs.
Regarding `Cc1ccc(S(=O)(=O)O)cc1.Cc1ccc(S(=O)(=O)O)cc1.OCCCn1ncc2cc(Nc3ncc(F)c(Nc4ccc(Cl)c(Cl)c4)n3)ccc21` [Compound R935451], the “% inhibition to vehicle control Edema Size ± SEM” value was 74.9 ± 7.5%.
With `COc1cc(Nc2ncc(F)c(Nc3ccc4c(c3)NC(=O)C(C)(C)O4)n2)cc(OC)c1.Cc1ccc(S(=O)(=O)O)cc1` [Compound R927070], the “% inhibition to vehicle control Edema Size ± SEM” value was determined as 31.1 ± 17.29%.
In the case of `CC1(C)Oc2ccc(Nc3nc(Nc4ccc5cn[nH]c5c4)ncc3F)cc2NC1=O.O=S(=O)(O)c1ccccc1` [Compound R935429], the “% inhibition to vehicle control Edema Size ± SEM” value is listed as −5.1 ± 14.9%.
Still for that read-out and setting: the figure for `COc1ccc(Nc2nc(Nc3ccc4cc[nH]c4c3)ncc2F)cc1Cl.Cc1ccc(S(=O)(=O)O)cc1` [Compound R927087] is −10.4 ± 14.4%.

Still in this series, the particulars now being: oral, 50 mg/kg, pretreatment time 1.5 hrs + 4 hours.
Turning to `Cc1ccc(S(=O)(=O)O)cc1.Cc1ccc(S(=O)(=O)O)cc1.OCCCn1ncc2cc(Nc3ncc(F)c(Nc4ccc(Cl)c(Cl)c4)n3)ccc21` [Compound R935451], the “Plasma Concentration ± SEM” value worked out at 385.0 ± 149.4 ng/mL.
On the same count and under the same terms, in the case of `CC1(C)Oc2ccc(Nc3nc(Nc4ccc5cn[nH]c5c4)ncc3F)cc2NC1=O.O=S(=O)(O)c1ccccc1` [Compound R935429] it was 164 ± 89 ng/mL; in that of `COc1ccc(Nc2nc(Nc3ccc4cc[nH]c4c3)ncc2F)cc1Cl.Cc1ccc(S(=O)(=O)O)cc1` [Compound R927087], 26.9 ± 8.0 ng/mL.

Staying with this series, now noted: oral, 100 mg/kg, pretreatment time 0 hrs.
`CC1(C)Oc2ccc(Nc3nc(Nc4ccc5cn[nH]c5c4)ncc3F)cc2NC1=O.O=S(=O)(O)c1ccccc1` [Compound R935429]: the “% inhibition to vehicle control Edema Size ± SEM” value is on record as −2.8 ± 14.8%.

Staying with this series, now noted: oral, 100 mg/kg, pretreatment time 1 hrs.
`COc1cc(Nc2ncc(F)c(Nc3ccc4c(c3)NC(=O)C(C)(C)O4)n2)cc(OC)c1.Cc1ccc(S(=O)(=O)O)cc1` [Compound R927070]: the “% inhibition to vehicle control Edema Size ± SEM” value came out at 61 ± 14%.

Staying with this series, now noted: oral, 100 mg/kg, pretreatment time 1 hrs + 4 hours.
As to `COc1cc(Nc2ncc(F)c(Nc3ccc4c(c3)NC(=O)C(C)(C)O4)n2)cc(OC)c1.Cc1ccc(S(=O)(=O)O)cc1` [Compound R927070], the “Plasma Concentration ± SEM” value came out at 2851 ± 712 ng/mL.
For `CC1(C)Oc2ccc(Nc3nc(Nc4ccc5cn[nH]c5c4)ncc3F)cc2NC1=O.O=S(=O)(O)c1ccccc1` [Compound R935429], the “Plasma Concentration ± SEM” value amounted to 401 ± 96 ng/mL.

Still in this series, the particulars now being: oral, 100 mg/kg, pretreatment time 1.5 hrs.
`Cc1ccc(S(=O)(=O)O)cc1.Cc1ccc(S(=O)(=O)O)cc1.OCCCn1ncc2cc(Nc3ncc(F)c(Nc4ccc(Cl)c(Cl)c4)n3)ccc21` [Compound R935451]: the “% inhibition to vehicle control Edema Size ± SEM” value was 77.1 ± 8.0%.
In the case of `COc1cc(Nc2ncc(F)c(Nc3ccc4c(c3)NC(=O)C(C)(C)O4)n2)cc(OC)c1.Cc1ccc(S(=O)(=O)O)cc1` [Compound R927070], the “% inhibition to vehicle control Edema Size ± SEM” value stood at 55.5 ± 7.7%.
As for `CC1(C)Oc2ccc(Nc3nc(Nc4ccc5cn[nH]c5c4)ncc3F)cc2NC1=O.O=S(=O)(O)c1ccccc1` [Compound R935429], the “% inhibition to vehicle control Edema Size ± SEM” value is 67.1 ± 13.8%.
In the case of `COc1ccc(Nc2nc(Nc3ccc4cc[nH]c4c3)ncc2F)cc1Cl.Cc1ccc(S(=O)(=O)O)cc1` [Compound R927087], the “% inhibition to vehicle control Edema Size ± SEM” value amounted to 28.7 ± 16.6%.

The same series, now with this note: oral, 100 mg/kg, pretreatment time 1.5 hrs + 4 hours.
Regarding `Cc1ccc(S(=O)(=O)O)cc1.Cc1ccc(S(=O)(=O)O)cc1.OCCCn1ncc2cc(Nc3ncc(F)c(Nc4ccc(Cl)c(Cl)c4)n3)ccc21` [Compound R935451], the “Plasma Concentration ± SEM” value worked out at 1459.0 ± 444.4 ng/mL.
In the case of `COc1cc(Nc2ncc(F)c(Nc3ccc4c(c3)NC(=O)C(C)(C)O4)n2)cc(OC)c1.Cc1ccc(S(=O)(=O)O)cc1` [Compound R927070], the “Plasma Concentration ± SEM” value amounted to 4095 ± 1187 ng/mL.
In the case of `CC1(C)Oc2ccc(Nc3nc(Nc4ccc5cn[nH]c5c4)ncc3F)cc2NC1=O.O=S(=O)(O)c1ccccc1` [Compound R935429], the “Plasma Concentration ± SEM” value turned out to be 206 ± 115 ng/mL.
For the compound `COc1ccc(Nc2nc(Nc3ccc4cc[nH]c4c3)ncc2F)cc1Cl.Cc1ccc(S(=O)(=O)O)cc1` [Compound R927087], the “Plasma Concentration ± SEM” value was 28.7 ± 10.8 ng/mL.

The series is the same for the next values; noted with them: oral, 100 mg/kg, pretreatment time 2 hrs.
Regarding `CC1(C)Oc2ccc(Nc3nc(Nc4ccc5cn[nH]c5c4)ncc3F)cc2NC1=O.O=S(=O)(O)c1ccccc1` [Compound R935429], the “% inhibition to vehicle control Edema Size ± SEM” value came to 55.5 ± 7.9%.

Staying with this series, now noted: oral, 100 mg/kg, pretreatment time 4 hrs.
On to `CC1(C)Oc2ccc(Nc3nc(Nc4ccc5cn[nH]c5c4)ncc3F)cc2NC1=O.O=S(=O)(O)c1ccccc1` [Compound R935429], for which the “% inhibition to vehicle control Edema Size ± SEM” value is recorded as 35.0 ± 11.4%.

The test system of a further series is Human Jurkat T-cells (clone N). Nature of the series: Jurkat T-cell activation (anti-TCR, CD69 upregulation).
Settings: not given
In kind it is cell-based. The gist of the method:
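Jurkat cells in RPMI + 5% FBS preincubated with compound 1 h at 37 °C, then stimulated with anti-TCR C305 at 500 ng/ml for 20 h. CD69 surface expression stained with anti-CD69-APC and read by flow cytometry; IC50 versus solvent-only control.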
Take `Cc1cc(Nc2ncc(F)c(Nc3ccc4c(c3)NC(=O)C(C)(C)O4)n2)cc(Cl)c1O` [Compound R940358]: the IC50 worked out at 159 nM.
Compound `CNC(=O)C1Cc2cc(Nc3ncc(F)c(Nc4ccc(OC(C)C)cc4)n3)ccc2O1` (stereo not shown) [Compound R926956] yielded an IC50 of 749 nM.
